Measured values taken from patent US6348445B1, “Biologically active peptides with reduced toxicity in animals and a method for preparing same” (priority 1992, dated 2002).
Where two headings read alike, the source gives them in different places. Where no end group is shown, it is not given here.

What was measured:
S. aureus ATCC 29213 = assay type: cell-based; settings: ATCC 29213
[1] = tested on: P. aeruginosa strain ATCC 27853; assay type: cell-based; settings: ATCC 27853
In short: (§1)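 Peptides serially diluted 1:2 to final 0.25–256 μg/ml in Mueller Hinton broth, inoculated with 1-5×10^5 CFUs/ml from mid-log culture. Incubated 16-20 hours at 37° C. MIC = lowest peptide concentration giving a clear well.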

[2] = MTD of repeat-dose intraperitoneal administration; assay type: in vivo, SCID mice; settings: for MTD at 504 h: male, SCID (Fox Chase C.B-17/IcrTac-scidfDF), mouse, in vivo, ip
Protocol: Determinations of a maximal tolerated dose (MTD) of repeat-dose intraperitoneal (i.p.) administration of MSI-344 or MSI-1857 in 60 SCID mice were done. Mice were injected with various doses of MSI-344 or MSI-1857 twice or thrice per week. Survival and body weight were monitored. On a twice per week dosing schedule, the MTDs of MSI-344 and MSI-1857 were 12 and 134 mg/kg/week, respectively. […] On a thrice per week dosing schedule, no deaths occurred in any groups, with high dose groups of MSI-344 and MSI-1857 receiving 90 mg/kg/week and […], respectively. A transient body weight loss was seen after initial dosing in most MSI-344 and MSI-1857 groups. No body weight loss greater than 6% occurred in any group on the thrice per week dosing schedule.
To determine estimates of MTDs of MSI-344 and MSI-1857 when administered intraperitoneally on repeat-dose regimens in SCID mice. The selection of SCID mice was based on the future plans of using this strain as host for xenograft human tumor efficacy models, and a pre-requisite for determining MTD for chronic administration that may be used during the efficacy model.
SCID mice are immunocompromised and therefore they were housed and handled in sterile environments. They had access to sterile water and sterilized chow ad lib.
A 1 mg/mL solution of MSI-344 was made in saline (0.9% sodium chloride injection USP, Abbott, North Chicago, Ill.) corrected for peptide content. Solutions of MSI-344 at concentrations of 0.6, 0.3, and 0.1 mg/mL were made by diluting the 1 mg/mL solution using saline as diluent. A 10 mg/mL solution of MSI-1857 was made in saline.
Solutions of MSI-1857 at concentrations of 6.7, 3.3, 3, 2, and 1 mg/mL were made by diluting the 10 mg/mL solution using saline as diluent.
Mice (four mice per dose group) were intraperitoneally administered MSI-344 or MSI-1857 using an injection volume of 10 mL/kg of the appropriate solution concentration on a twice per week (Groups 1 through 7) or thrice per week (Groups 8 through 15) dosing schedule every week for 20 weeks. Survival was monitored daily and body weights were recorded three times per week An interim analysis was performed at 3 weeks and the results of this interim analysis is presented in the present report.

[3] = tested on: E. coli ATCC strain 25922; assay: Minimal Inhibitory Concentration, microtiter broth dilution; assay type: cell-based; settings: ATCC strain 25922
In short: as §1

Sequence: GIGKFLKKAKKFGKAFVKILKK [MSI-344]
- MIC S. aureus ATCC 29213 (S. aureus ATCC 29213): 128 µg/mL
- MIC P. aeruginosa ATCC 27853 [1]: 16 µg/mL
- effect of initial dosings on body weight ([2]; all surviving groups except the low dose group on the thrice-per-week schedule): dose-dependent transient body weight loss
- MTD, thrice per week dosing schedule ([2]; i.p., SCID mice, interim analysis at 3 weeks): greater than or equal to 18 mg/kg/week
- MTD at 504 h ([2]; SCID mice, interim analysis at 3 weeks, read-out: MTD, thrice per week dosing schedule): ≥ 2.57 mg/kg/day
- MTD at 504 h ([2]; SCID mice, interim analysis at 3 weeks, read-out: MTD, twice per week dosing schedule (converted)): 1.71 mg/kg/day
- MIC E. coli ATCC 25922 [3]: 8 µg/mL
